Experiments:
[1] = system: Clostridium perfringens JCM 3816; type: cell-based; details: 0.5 w/v % saccharide in PYF broth, 37° C., 96 hours
[2] = system: Escherichia coli IFO 3301; test: Assimilation test by intestinal microorganism; type: cell-based; details: 0.5 w/v % saccharide in PYF broth, 37° C., 96 hours
[3] = system: Bifidobacterium breve JCM 1192; test: Assimilation test by intestinal microorganism; type: cell-based; details: 0.5 w/v % saccharide in PYF broth, 37° C., 96 hours
[4] = system: Clostridium butyricum JCM 1391; type: cell-based; details: 0.5 w/v % saccharide in PYF broth, 37° C., 96 hours
[5] = system: Enzyme from small intestinal mucus membrane; details: enzymes of small intestinal mucus membranes
[6] = system: Clostridium ramosum JCM 1298; test: Assimilation test by intestinal microorganism; type: cell-based; details: 0.5 w/v % saccharide in PYF broth, 37° C., 96 hours
[7] = system: Bifidobacterium animalis JCM 1190; test: Assimilation test by intestinal microorganism; type: cell-based; details: 0.5 w/v % saccharide in PYF broth, 37° C., 96 hours
[8] = Maillard reaction (coloration with glycine); type: physicochemical; details: 10 w/v % saccharide, one w/v % glycine, 50 mM phosphate buffer pH 7.0, 100° C., 90 min; 1-cm cell
bifid bacteria [9] = test: Assimilation test by intestinal microorganism, overall judgement; type: cell-based; details: results of Tables 4 and 5
Description: (§1) To evaluate the growth rate of and to judge the assimilability by the microorganisms, the resultant broth was diluted 5-fold, and the turbidity of the dilution was measured at a wavelength of 750 nm in a 1-cm light-path cell. […] The criteria were in Table 3, and the results were in Tables 4 and 5: […]

[10] = system: Bifidobacterium infantis JCM 1222; test: Assimilation test by intestinal microorganism; type: cell-based; details: 0.5 w/v % saccharide in PYF broth, 37° C., 96 hours
[11] = system: Bacteroides uniformis JCM 5828; test: Assimilation test by intestinal microorganism; type: cell-based; details: 0.5 w/v % saccharide in PYF broth, 37° C., 96 hours
bifid bacteria [12] = test: Influence on growth-promoting activity for bifid bacteria in vivo (feces of volunteers); parameters: species or system human; details: after vs before 14-day administration; span over both saccharides
Description: The weight of daily feces before and after the 14-day administration tests, the relative change of feces' weight, the feces' pH, the total number of microorganisms per g of feces, the percentage of the number of bifid bacteria to the total number of microorganisms in feces, and the relative change of the total number of bifid bacteria were measured, followed by calculating the mean value of the five volunteers. Among these measurements, the total number of microorganisms was determined in accordance with the method as reported in "A Color Atlas of Anaerobic Bacteria", pp.53-65 (1984), edited by Tomotari MITSUOKA, published by Kabushiki Kaisha Sobunsha, Tokyo, Japan (1984): The colonies grown in 13 different types of media excluding M10 medium were judged for which genus they belong to and counted for cells. The cell count obtained with a specific medium, which gave the highest number of microorganisms for each genus, was determined to be a real cell count. The total cell count of microorganisms of all the genera was determined to be the total number of microorganisms in each volunteer's feces.

[13] = system: Eubacterium aerofaciens ATCC 25986; test: Assimilation test by intestinal microorganism; type: cell-based; details: 0.5 w/v % saccharide in PYF broth, 37° C., 96 hours
[14] = system: Peptostreptococcus prevotii ATCC 9321; test: Assimilation test by intestinal microorganism; type: cell-based; details: 0.5 w/v % saccharide in PYF broth, 37° C., 96 hours
[15] = system: Bacteroides vulgatus JCM 5826; test: Assimilation test by intestinal microorganism; type: cell-based; details: 0.5 w/v % saccharide in PYF broth, 37° C., 96 hours
[16] = system: Streptococcus sobrinus ATCC 27351; test: Acid formation by dental caries-inducing microorganisms; details: living wet cells, 0.02M saccharide, Stephen buffer pH 7.0, 37° C.; for pH at each fermentation time (min): 0: 0 min; for pH at each fermentation time (min): 5: 5 min; for pH at each fermentation time (min): 15: 15 min; for pH at each fermentation time (min): 30: 30 min; for pH at each fermentation time (min): 60: 60 min; for pH at each fermentation time (min): 90: 90 min
[17] = system: Bifidobacterium bifidum JCM 1255; test: Assimilation test by intestinal microorganism; type: cell-based; details: 0.5 w/v % saccharide in PYF broth, 37° C., 96 hours
[18] = system: Lactobacillus plantarum IFO 3070; test: Assimilation test by intestinal microorganism; type: cell-based; details: 0.5 w/v % saccharide in PYF broth, 37° C., 96 hours
[19] = system: Bacteroides distasonis JCM 5825; test: Assimilation test by intestinal microorganism; type: cell-based; details: 0.5 w/v % saccharide in PYF broth, 37° C., 96 hours
[20] = system: Lactobacillus fermentum IFO 3959; test: Assimilation test by intestinal microorganism; type: cell-based; details: 0.5 w/v % saccharide in PYF broth, 37° C., 96 hours
[21] = system: crude glucosyltransferase specimen derived from Streptococcus sobrinus strain (ATCC 27351); test: Inhibition of insoluble glucan formation by glucosyltransferase from dental caries-inducing microorganism; type: biochemical; details: sucrose plus test saccharide (one ml of one w/v % each), pH 6.8, 37° C., 16 hours; for Yield of non-adsorbed glucans: sucrose alone 923; for Yield of adsorbed glucans: sucrose alone 1,160
Description: To a mixture solution consisting of one ml of one w/v % sucrose solution, one ml of one w/v % of a test saccharide solution, and 1.5 ml of 0.1M phosphate buffer (pH 6.8) was added 0.5 ml solution containing a crude glucosyltransferase specimen in a total protein content of 10 mg, and the mixture solution was placed in a small test tube which was then fixed and slanted to give a grade 30 degrees and allowed to react at 37° C. for 16 hours. The reaction mixture was transferred gently to another test tube and mixed with a solution obtained by washing carefully with 4 ml water the remaining substances adhered to the inner walls of the small test tube, and the mixture solution was centrifuged to obtain a precipitate as a non-adsorbed glucan. The amounts of the adsorbed- and non-adsorbed glucans thus obtained were respectively quantified by the anthrone-sulfuric acid method, and the total amount of them was regarded as the amount of the formed insoluble glucans. As a control system, a reaction system using water in place of the test saccharide solution, i.e. a reaction system using sucrose as a saccharide, was provided.

[22] = system: Streptococcus faecalis IAM 10065; test: Assimilation test by intestinal microorganism; type: cell-based; details: 0.5 w/v % saccharide in PYF broth, 37° C., 96 hours
[23] = system: Bifidobacterium adolescentis JCM 1275; test: Assimilation test by intestinal microorganism; type: cell-based; details: 0.5 w/v % saccharide in PYF broth, 37° C., 96 hours
[24] = system: Bifidobacterium longum JCM 1217; test: Assimilation test by intestinal microorganism; type: cell-based; details: 0.5 w/v % saccharide in PYF broth, 37° C., 96 hours
Acute toxicity test = type: in vivo; details: oral, mice, highest possible dose
Excerpt: As a result, no mouse died even when administered with a highest possible dose. This means that the LD50 is 50 g/kg mouse or more and concludes that it is extremely low in toxicity.

[25] = system: Clostridium sporogenes JCM 1416; test: Assimilation test by intestinal microorganism; type: cell-based; details: 0.5 w/v % saccharide in PYF broth, 37° C., 96 hours, free of sugar: ±
Description: as §1

Structure (SMILES)	Judgement of assimilation (turbidity at a wavelength of 750 nm × 5) [1]	Judgement of assimilation (turbidity at a wavelength of 750 nm × 5) [2]	Judgement of assimilation (turbidity at a wavelength of 750 nm × 5) [3]	Judgement of assimilation (turbidity at a wavelength of 750 nm × 5) [4]	Digestibility, judgement in words [5]	Judgement of assimilation (turbidity at a wavelength of 750 nm × 5) [6]	Judgement of assimilation (turbidity at a wavelength of 750 nm × 5) [7]	Coloration degree (at a wavelength of 480 nm) [8]	Judgement of assimilation (turbidity at a wavelength of 750 nm × 5) [10]	Judgement of assimilation (turbidity at a wavelength of 750 nm × 5) [11]	Judgement of assimilation (turbidity at a wavelength of 750 nm × 5) [13]	Judgement of assimilation (turbidity at a wavelength of 750 nm × 5) [14]	Judgement of assimilation (turbidity at a wavelength of 750 nm × 5) [15]	Judgement of assimilation (turbidity at a wavelength of 750 nm × 5) [17]	Judgement of assimilation (turbidity at a wavelength of 750 nm × 5) [18]	Judgement of assimilation (turbidity at a wavelength of 750 nm × 5) [19]	Judgement of assimilation (turbidity at a wavelength of 750 nm × 5) [20]	Judgement of assimilation (turbidity at a wavelength of 750 nm × 5) [22]	Judgement of assimilation (turbidity at a wavelength of 750 nm × 5) [23]	Judgement of assimilation (turbidity at a wavelength of 750 nm × 5) [24]	other results
OC[C@H]1O[C@H](OC[C@H]2O[C@H](O[C@H]3O[C@H](CO[C@H]4O[C@H](CO)[C@@H](O)[C@H](O)[C@H]4O)[C@@H](O)[C@H](O)[C@H]3O)[C@H](O)[C@@H](O)[C@@H]2O)[C@H](O)[C@@H](O)[C@@H]1O [α-Isomaltosyl α-isomaltoside, O-α-D-glucopyranosyl-(1→6)-α-D-glucopyranosyl O-α-D-glucopyranosyl-(1→6)-α-D-glucopyranoside]	- (Less than 0.1)	- (Less than 0.1)	+++ (0.3 or higher)	+++ (0.3 or higher)	relatively-low in digestibility	- (Less than 0.1)	+++ (0.3 or higher)	0.016	+++ (0.3 or higher)	- (Less than 0.1)	- (Less than 0.1)	± (0.1 or higher but less than 0.15)	- (Less than 0.1)	++ (0.2 or higher but less than 0.3)	- (Less than 0.1)	- (Less than 0.1)	- (Less than 0.1)	- (Less than 0.1)	+++ (0.3 or higher)	+++ (0.3 or higher)	Selective assimilability by bifid bacteria, in words (bifid bacteria [9]): high in the selective assimilability by bifid bacteria; Increase of the total cell count of bifid bacteria (bifid bacteria [12]): 2.3- to 2.5 fold; pH at each fermentation time (min): 0 [16]: 7.0; pH at each fermentation time (min): 5 [16]: 7.0; pH at each fermentation time (min): 15 [16]: 6.9; pH at each fermentation time (min): 30 [16]: 6.9; pH at each fermentation time (min): 60 [16]: 6.9; pH at each fermentation time (min): 90 [16]: 6.9; Yield of non-adsorbed glucans [21]: 298 µg/mL; Yield of adsorbed glucans [21]: 72 µg/mL
OC[C@H]1O[C@H](OC[C@H]2O[C@H](O[C@H]3O[C@H](CO)[C@@H](O)[C@H](O)[C@H]3O)[C@H](O)[C@@H](O)[C@@H]2O)[C@H](O)[C@@H](O)[C@@H]1O [O-α-D-glucopyranosyl-(1→6)-α-D-glucopyranosyl α-D-glucopyranoside]	+ (0.15 or higher but less than 0.2)	- (Less than 0.1)	+++ (0.3 or higher)	–	slightly hydrolyzed	- (Less than 0.1)	+++ (0.3 or higher)	0.021	+++ (0.3 or higher)	- (Less than 0.1)	- (Less than 0.1)	± (0.1 or higher but less than 0.15)	- (Less than 0.1)	++ (0.2 or higher but less than 0.3)	- (Less than 0.1)	- (Less than 0.1)	- (Less than 0.1)	- (Less than 0.1)	+++ (0.3 or higher)	+++ (0.3 or higher)	Selective assimilability by bifid bacteria, in words (bifid bacteria [9]): high in the selective assimilability by bifid bacteria; Increase of the total cell count of bifid bacteria (bifid bacteria [12]): 2.3- to 2.5 fold; Mortality in acute toxicity test, in words (Acute toxicity test): no mouse died; pH at each fermentation time (min): 0 [16]: 7.0; pH at each fermentation time (min): 5 [16]: 7.0; pH at each fermentation time (min): 15 [16]: 6.9; pH at each fermentation time (min): 30 [16]: 6.9; pH at each fermentation time (min): 60 [16]: 6.9; pH at each fermentation time (min): 90 [16]: 6.9; Yield of non-adsorbed glucans [21]: 118 µg/mL; Yield of adsorbed glucans [21]: 30 µg/mL
O=C[C@H](O)[C@@H](O)[C@H](O)[C@H](O)CO [A, glucose, reference compound]	+++ (0.3 or higher)	+ (0.15 or higher but less than 0.2)	++ (0.2 or higher but less than 0.3)	+++ (0.3 or higher)	–	+ (0.15 or higher but less than 0.2)	+++ (0.3 or higher)	–	++ (0.2 or higher but less than 0.3)	++ (0.2 or higher but less than 0.3)	+++ (0.3 or higher)	+ (0.15 or higher but less than 0.2)	+ (0.15 or higher but less than 0.2)	++ (0.2 or higher but less than 0.3)	++ (0.2 or higher but less than 0.3)	++ (0.2 or higher but less than 0.3)	++ (0.2 or higher but less than 0.3)	++ (0.2 or higher but less than 0.3)	+++ (0.3 or higher)	+++ (0.3 or higher)	Judgement of assimilation (turbidity at a wavelength of 750 nm × 5) [25]: + (0.15 or higher but less than 0.2)

From patent publication US5883243A, “Non-reducing saccharides, their preparations and uses” (Kabushiki Kaisha Hayashibara Seibutsu Kagaku Kenkyujo, priority 1997, dated 1999)
